Measured values from patent US20160089464A1, “MALODOR REDUCTION COMPOSITIONS” (The Procter & Gamble Company, priority 2014, published 2016).

assay: Comment Code material properties: vapor pressure, ClogP, probability of ingredient color instability, odor detection threshold, melamine formaldehyde PMC headspace response ratio and leakage, liquid dish neat product liquid-air partition coefficient; assay type: physicochemical; conditions: Table 1 materials; each letter of the code is one property class (vapor pressure, ClogP, color instability, odor detection threshold, PMC headspace ratio, PMC leakage, liquid dish liquid-air partition coefficient)

Compound	Comment Code
CC12CCCC(O)(C1)C1CC(C)(C)C1CC2 (centres unmarked) [Material 574]	DEFHJK
C=C(C)C1CC=C(C)C(OC(C)=O)C1 (centres unmarked) [Material 577]	BDHIJK
CCCCCCCC#N [Material 578]	ACEFGIKL
CCCCCCCCO [Material 580]	ACEFGIKL
CCCCCCCCCC(=O)O [Material 582]	DEFHJK
CCCCCCCCCC=O [Material 584]	ADHKL
COc1ccc(CC(C)C=O)cc1 (centres unmarked) [Material 586]	BCHJK
CC12CCC(C(=O)C1=O)C2(C)C (centres unmarked) [Material 587]	ACEFGIJK
C=C1C2CCC(C2)C1(C)C (centres unmarked) [Material 589]	ADEFGIJKL
CCCCCC1CC(=O)C=C(C)C1C(=O)OCC (centres unmarked) [Material 591]	DHJ
CCCCCCCCCCCCCCCCCC(=O)OCCCC [Material 594]	DEFHJ
CCCCOC(=O)C(C)OC(=O)CCC (centres unmarked) [Material 595]	CEFGJK
C=CCCCCCCCCC(=O)OCCCC [Material 599]	DEFHJK
CC1=CCC(CCC(C)CO)C1(C)C (centres unmarked) [Material 600]	DEFHJK
CC(C)(C)c1ccc(CCC=O)cc1 [Material 601]	BDHJK
CC(C)C(=O)OC1CC2CCC1(C)C2(C)C (centres unmarked) [Material 603]	BDEFHIJK
CC(=O)OC1CC2CCC1(C)C2(C)C (centres unmarked) [Material 604]	ADEFHIJKL
C=C1C2CCC(C)(OCC)C1CCC2(C)C (centres unmarked) [Material 606]	BDEFHJK
CCOCOC1CCCCCCCCCCC1 [Material 607]	DEFHJK
CC(C)=CCCC(C)=C1CC=C(C)CC1 [Material 608]	DEFHJK
CC1=CC(=O)CC(C)C12CCC(=C(C)C)C2 (centres unmarked) [Material 610]	DHJK
C=C(C)C1CCC(C)(OC(C)=O)CC1 (centres unmarked) [Material 611]	BDHJK
C=C(C)C1CCC(C)(O)CC1 (centres unmarked) [Material 612]	BCGIJK

Compound	Comment Code
C=CC(=C)CCC=C(C)CCC=C(C)C=O [Material 613]	DHJK
C=C1C=CC(C(C)CCC=C(C)C)CC1 (centres unmarked) [Material 614]	DEFHJK
C=C(C)C1CCC2(C)CCCC(=C)C2C1 (centres unmarked) [Material 615]	BDEFGJK
C=C1C2CCC(C2)C1(C)CCC=C(C)CO (centres unmarked) [Material 616]	DEFHJK
CC1CCC2=C1CC1CCC2(C)C1(C)C (centres unmarked) [Material 621]	BDEFGJKL
CC1=CC2C(=C(C)CCCC2(C)C)CC1 (centres unmarked) [Material 625]	DEFHJKL
CC(C)=C1CCC(C)C2=C(C1)C(C)CC2 (centres unmarked) [Material 626]	DEFHJKL
COC(Cc1ccccc1)OC [Material 627]	DHJK
C=CC(=C)CCC=C(C)CCC=C(C)C [Material 628]	DEFHJK
C=C1CCC2C3C(C(C)C)CCC2(C)C13 (centres unmarked) [Material 631]	BDEFHJKL
C=C1CCC23CC1C(C)(C)C2CCC3C (centres unmarked) [Material 632]	BDEFGJKL
C=C1CCC=C(C)CCC2C1CC2(C)C (centres unmarked) [Material 633]	DEFHJKL
CC(=O)C=CC12OC1(C)CCCC2(C)C (centres unmarked) [Material 636]	BDEFHIJK
COc1c2ccoc2cc2oc(=O)ccc12 [Material 638]	CGJ
CC(C)(O)CCc1ccccc1 [Material 639]	CEFGJK
CCCCCCCCCCCC(=O)OCc1ccccc1 [Material 644]	DEFHJ
CC(C)(O)Cc1ccccc1 [Material 649]	BCEFGIK
O=C(/C=C/c1ccccc1)OCc1ccccc1 [Material 650]	DHJ
O=C(OCc1ccccc1)c1ccccc1 [Material 653]	DHJ
CC(C)CCc1ccc2c(c1)OCC(=O)CO2 [Material 658]	DHJ
CC(C)C1OCCC2(CC3CCC2(C)C3(C)C)O1 (centres unmarked) [Material 659]	DEFHJK
CC(C)=CCCC1=CCC(C#N)CC1 (centres unmarked) [Material 660]	DEFHJK
COC(=O)c1ccccc1N=CCC(C)CCCC(C)(C)O (centres unmarked) [Material 661]	DEFHJ

Compound	Comment Code
C=CC/C=C/CCC(=O)OC [Material 668]	ACEFHKL
CCCCCOC(=O)C=Cc1ccccc1 [Material 671]	DEFHJK
C[C@@H]1CC[C@H]2C(C)(C)[C@H]3C[C@@]12CC1OC(C)(C)OC13C (some centres unmarked) [Material 674]	DEFHJK
CC1(O)CCC2=C(CCCC2(C)C)C1 (centres unmarked) [Material 675]	DEFHJK
CC1(O)CCC2=C(CCCC2(C)C)C1 (centres unmarked) [Material 676]	DEFHJK
CCC(O)COC1CCCCC1C(C)(C)C (centres unmarked) [Material 677]	DEFHJK
CC1(C)CCC[C@@]2(C)[C@H]1CC[C@]13CO[C@](C)(CC[C@@H]12)O3 [Material 678]	DEFHJ
CC1C(C)(C)C2CCC3CC(C)(C)OC3C2C1(C)C (centres unmarked) [Material 679]	ADEFHJK
CC1C(C)(C)C2CCC3CC(C)(C)OC3C2C1(C)C (centres unmarked) [Material 680]	ADEFHJK
CC(C)[C@@]12CC(=O)[C@H](C)[C@@H]1C2 [Material 683]	ADEFGIJKL
CC(C)=C1CCC2=CC(=O)CC(C)C2(C)C1 (centres unmarked) [Material 684]	DHJK
CCC(=O)OC(C)(C)C1CC=C(C)CC1 (centres unmarked) [Material 686]	BDEFHJK
C=CC(C)=CCC=C(C)CCC=C(C)C=O [Material 691]	DHJK
C=C(C)C1CCC2(C)CCC=C(C)C2C1 (centres unmarked) [Material 692]	BDEFHJK
CC(C)=CCCC1(C)C2CC3C(C2)C31C (centres unmarked) [Material 693]	ADEFHJKL
CC(=CCCC1(C)C2CC3C(C2)C31C)CO (centres unmarked) [Material 694]	DEFHJK
C=CCCC(=O)C1=CCCC(C)(C)C1 [Material 697]	BDHJK
CC1=CC2C(CC1)C(C)=CCC2C(C)C (centres unmarked) [Material 698]	DEFHJKL
CCC(=O)C=CC1C(C)=CCCC1(C)C (centres unmarked) [Material 700]	BDHJK
C=C(C)C1CC=C(C)CC1 (centres unmarked) [Material 702]	ADEFGIJKL
CC(=O)C=CC1C(C)=CCC(C)C1(C)C (centres unmarked) [Material 704]	BDHJK
CC1=CCCC(C)=CCC(C)(C)C=CC1 [Material 706]	DEFHJK
C=C1CCCC(C)(C)C2C=C(C)CCC12 (centres unmarked) [Material 707]	BDEFHJK

same assay, conditions: cell strings several class symbols together; each letter is one property class of L1

Compound	Comment Code
CC12CCCC(O)(C1)C1CC(C)(C)C1CC2 (centres unmarked) [Material 574]	DEFHJK
Cc1ccc(C(C)C)cc1O [Material 575]	DHIJK
C=C(C)C1CC=C(C)C(=O)C1 (centres unmarked) [Material 576]	ACGIJKL
CCOCCOCCO [Material 579]	BCEFGIK
CCCCCC(=O)O [Material 583]	ACEFGIKL
CC1=CCC(CC#N)C1(C)C (centres unmarked) [Material 585]	ACGIJKL
CC12CCC(CC1=O)C2(C)C (centres unmarked) [Material 588]	ACEFGIJKL
CC1=C(C/C=C(\C)C=O)C(C)(C)CCC1 [Material 602]	DHJK
C=C1C2CCC(C2)C1(C)CCC=C(C)CO (centres unmarked) [Material 616]	DEFHJK
CC1(C)C2CCC3(CO3)C1C2 (centres unmarked) [Material 617]	ACEFGIJKL
C=C1C=CC(C(C)C)CC1 (centres unmarked) [Material 619]	ADEFGIJKL
CC1CCC2=C1CC1CCC2(C)C1(C)C (centres unmarked) [Material 621]	BDEFGJKL
COC(Cc1ccccc1)OC [Material 627]	DHJK
C=C1CCC2C3C(C(C)C)CCC2(C)C13 (centres unmarked) [Material 631]	BDEFHJKL
C=C1CCC23CC1C(C)(C)C2CCC3C (centres unmarked) [Material 632]	BDEFGJKL
CC(=O)CCc1ccccc1 [Material 640]	ACEFGIK
O=C(OCc1ccccc1)c1ccccc1O [Material 641]	DFGJ
CC(C)CC(=O)OCc1ccccc1 [Material 645]	BDEFHJK

Compound	Comment Code
CC(C)C(=O)OCc1ccccc1 [Material 647]	BCHJK
OCc1ccccc1 [Material 652]	ACEFGIKL
CC(C)C1OCCC2(CC3CCC2(C)C3(C)C)O1 (centres unmarked) [Material 659]	BDEFHJK
CC(OC=O)C1CCCC(C)(C)C1 (centres unmarked) [Material 662]	ADEFHIJKL
COc1ccc(COC(C)=O)cc1 [Material 664]	BCEFGK
COc1ccc(COC=O)cc1 [Material 665]	BCEFGK
CCCCCOC(=O)c1ccccc1 [Material 672]	DEFHJK
C[C@@H]1CC[C@H]2C(C)(C)[C@H]3C[C@@]12CC1OC(C)(C)OC13C (some centres unmarked) [Material 674]	DEFHJK
CC1(C)CCC[C@@]2(C)[C@H]1CC[C@]13CO[C@](C)(CC[C@@H]12)O3 [Material 678]	DEFHJ
CC1C(C)(C)C2CCC3CC(C)(C)OC3C2C1(C)C (centres unmarked) [Material 679]	DEFHJK
CC1C(C)(C)C2CCC3CC(C)(C)OC3C2C1(C)C (centres unmarked) [Material 680]	ADEFHJK
CC(C)=C1CCC2=CC(=O)CC(C)C2(C)C1 (centres unmarked) [Material 684]	DHJK
CC(=O)OC(C)(C)C1CC=C(C)CC1 (centres unmarked) [Material 687]	BDHJK
CC(=CCCC1(C)C2CC3C(C2)C31C)CO (centres unmarked) [Material 694]	DEFHJK
CC(O)CCC1CCCCC1 (centres unmarked) [Material 699]	BDEFHIK
CC(C=O)=Cc1ccccc1 [Material 701]	ACHIK
CC(=O)C(C)=CC1C(C)=CCCC1(C)C (centres unmarked) [Material 703]	BDHIJK
